The subject of the assay is 935938-334-R-J1-PDC spheroids with HUVEC/MSC, viability. Briefly: Anticancer human tumor 935938-334-R-J1-PDC patient-derived small intestine adenocarcinoma cell line growth inhibition [PI3K]. Particulars: for viability, T/C: stronger effect = lower value. In a few lines: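 Tumor cells were combined with HUVEC and MSCs into spheroids, then dosed with PI3K-inhibitor combinations over half-log ranges capped near clinical Cmax or 10 microM.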

Molecules are shown by their SMILES.
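Also: compound exposure lasted seven days before viability was read.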
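For viability, T/C in this document: percent of vehicle DMSO treated spheroid viability so 100% = untreated.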

Turning to `Cn1nccc1Nc1nccc(-c2ccn(C(CO)c3ccc(Cl)c(F)c3)c(=O)c2)n1` (stereo not drawn), the viability, T/C (compound 0.0316 µM) is 101% [middle of 4 runs]; the viability, T/C (compound 0.316 µM) is 68.3% [middle of 4 runs]; the viability, T/C (compound 1 µM) is 52.5% [middle of 4 runs]; the viability, T/C (compound 3.16 µM) is 43.4% [middle of 4 runs]; the viability, T/C (compound 10 µM) is 37% [middle of 4 runs]. For the same molecule, the IC50 (curve of compound) was 1.06 µM [middle of 4 runs].

`CC1(C)CCC(CN2CCN(c3ccc(C(=O)NS(=O)(=O)c4ccc(NCC5CCOCC5)c([N+](=O)[O-])c4)c(Oc4cnc5[nH]ccc5c4)c3)CC2)=C(c2ccc(Cl)cc2)C1` + CC(Nc1ncnc2nc[nH]c12)c1cc2cccc(Cl)c2c(=O)n1-c1ccccc1: the 50% inhibitory concentration (IC50) is 6.28 µM (curve of first compound, second compound 0.0316 µM); 6.66 µM (curve of first compound, second compound 0.1 µM); 6.04 µM (curve of first compound, second compound 0.316 µM); 6.82 µM (curve of first compound, second compound 1 µM); 6.73 µM (curve of first compound, second compound 3.16 µM); 5.59 µM (curve of first compound, second compound 10 µM). Moreover, the viability, T/C was 98.3% (second compound 0.0316 µM, first compound 0.0316 µM); 93.6% (second compound 0.0316 µM, first compound 0.1 µM); 90.8% (second compound 0.0316 µM, first compound 0.316 µM); 88.8% (second compound 0.0316 µM, first compound 1 µM); 89% (second compound 0.0316 µM, first compound 3.16 µM); 23.5% (second compound 0.0316 µM, first compound 10 µM). For the same molecule, the viability, T/C (second compound 0.1 µM, first compound 0.0316 µM) is 98.2%; the viability, T/C (second compound 0.1 µM, first compound 0.1 µM) is 104%; the viability, T/C (second compound 0.1 µM, first compound 0.316 µM) is 94.3%; the viability, T/C (second compound 0.1 µM, first compound 1 µM) was 105%; the viability, T/C (second compound 0.1 µM, first compound 3.16 µM) was 95.1%; the viability, T/C (second compound 0.1 µM, first compound 10 µM) was 25.2%. Besides, the viability, T/C is 104% (second compound 0.316 µM, first compound 0.0316 µM); 98.9% (second compound 0.316 µM, first compound 0.1 µM); 105% (second compound 0.316 µM, first compound 0.316 µM); 93.8% (second compound 0.316 µM, first compound 1 µM); 86.7% (second compound 0.316 µM, first compound 3.16 µM); 22.3% (second compound 0.316 µM, first compound 10 µM). Also, the viability, T/C by setting is: (second compound 1 µM, first compound 0.0316 µM) 80.7%; (second compound 1 µM, first compound 0.1 µM) 94.1%; (second compound 1 µM, first compound 0.316 µM) 69.1%; (second compound 1 µM, first compound 1 µM) 102%; (second compound 1 µM, first compound 3.16 µM) 92.7%; (second compound 1 µM, first compound 10 µM) 31.2%. Moreover, the viability, T/C (second compound 3.16 µM, first compound 0.0316 µM) is 92.6%; the viability, T/C (second compound 3.16 µM, first compound 0.1 µM) was 89.2%; the viability, T/C (second compound 3.16 µM, first compound 0.316 µM) is 87.1%; the viability, T/C (second compound 3.16 µM, first compound 1 µM) is 93.2%; the viability, T/C (second compound 3.16 µM, first compound 3.16 µM) is 92.5%; the viability, T/C (second compound 3.16 µM, first compound 10 µM) was 28.4%. In addition, the viability, T/C by setting is: (second compound 10 µM, first compound 0.0316 µM) 81.7%; (second compound 10 µM, first compound 0.1 µM) 61.5%; (second compound 10 µM, first compound 0.316 µM) 91.2%; (second compound 10 µM, first compound 1 µM) 86.5%; (second compound 10 µM, first compound 3.16 µM) 73.4%; (second compound 10 µM, first compound 10 µM) 26.1%.
